According to the NIST ThermoML archive (doi:10.1016/j.fluid.2005.09.011):

Details: Liquid; for mass density: 101.33 kPa

FC(F)C(F)(F)C(F)(F)C(F)(F)C(F)(F)C(F)(F)C(F)(F)C(F)F [1,1,2,2,3,3,4,4,5,5,6,6,7,7,8,8-hexadecafluorooctane]
Details | mass density [kg/m3] | vapor or sublimation pressure [kPa]
288.15 K | 1775.3 | –
289.31 K | – | 0.55
293.15 K | 1764.4 | –
293.26 K | – | 0.75
298.15 K | 1753.4 | –
298.2 K | – | 0.99
303.15 K | 1742.4 | –
303.18 K | – | 1.43
308.15 K | 1731.3 | –
308.17 K | – | 1.92
313.15 K | 1720.2 | –
313.18 K | – | 2.49
318.14 K | – | 3.12
323.15 K | – | 4.07
328.15 K | – | 5.26
333.14 K | – | 6.64
